Experimental findings from patent US4352811A, “3-(1-Substituted-4-piperidyl)-1,2-benzisoxazoles” (Hoechst-Roussel Pharmaceuticals Inc., priority 1981, dated 1982) are described below.

Structures can show the parent of a compound that is named as a salt.

The first test relates to apomorphine climbing. The test can be described thus: Neuroleptic activity in the climbing mice assay (apomorphine-induced climbing). It counts as in vivo, mice (CK-1 male). To be noted: Mus musculus, ip, intraperitoneal 30 min before apomorphine 1.5 mg/kg s.c., climbing scored at 10, 20 and 30 min, linear regression, read-out: NEUROLEPTIC ACTIVITY (ED50 mg/kg). As to the method:
The subject CK-1 male mice (23-27 grams) are group-housed under standard laboratory conditions. The mice are individually placed in wire mesh stick cages (4"×4" by 10") and are allowed one hour for adaptation and exploration of the new environment.
For evaluation of climbing, 3 readings are taken at 10, 20 and 30 minutes after apomorphine administration according to the following scale: […]
Mice consistently climbing before the injection of apormorphine will be discarded.
With full-developed apomorphine climbing, the animals are hanging onto the cage walls, rather motionless, over longer periods of time. By contrast, climbs due to mere motor stimulation usually only last a few seconds.
The climbing scores are individually totaled (maximal score: 6 per mouse over 3 readings) and the total score of the control group (vehicle intraperitoneally--apomorphine subcutaneously) is set to 100%.
For `Cl.O=C(CCCN1CCC(c2noc3cc(Cl)ccc23)CC1)c1ccc(F)cc1` [3-[1-(4-Fluorobenzoylpropyl)-4-piperidyl]-6-chloro-1,2-benzisoxazole hydrochloride], the ED50 amounted to 0.27 mg/kg.
As for `Fc1ccc2c(CCCN3CCC(c4noc5ccc(F)cc45)CC3)noc2c1` [3-[1-(6-Fluoro-1,2-benzisoxazol-3-propyl)-4-piperidyl]-5-fluoro-1,2-benzisoxazole hydrochloride], the ED50 worked out at 3.4 mg/kg.
Same read-out and setting: the result for `COc1ccc2onc(C3CCN(CCCc4noc5cc(F)ccc45)CC3)c2c1` [3-[1-(6-Fluoro-1,2-benzisoxazole-3-propyl)-4-piperidyl]-5-methoxy-1,2-benzisoxazole hydrobromide] reads 7.23 mg/kg.
For `O=c1[nH]c2ccccc2n1CCCN1CCC(c2noc3ccccc23)CC1` [3-{1,3-dihydro-2-oxo-2H-benzmidazol-1-ylpropyl]-4-piperidyl}-1,2-benzisoxazole], the ED50 was found to be 0.36 mg/kg.
Same read-out and setting: with `Br.O=c1[nH]c2ccccc2n1CCN1CCC(c2noc3ccccc23)CC1` [3-{1-[1,3-Dihydro-2-oxo-2H-benzimidazol-1-ylethyl]-4-piperidyl}1,2-benzisoxazole hydrobromide] the figure was 7.7 mg/kg; with `Fc1ccc(C(CCCN2CCC(c3noc4ccc(F)cc34)CC2)c2ccc(F)cc2)cc1` [3-{1-[4,4-bis-Fluorophenyl)-1-butyl]-4-piperidyl}-5-fluoro-1,2-benzisoxazole hydrochloride], 1.6 mg/kg; with `Cc1[nH]c2ccccc2c1CCCN1CCC(c2noc3cc(F)ccc23)CC1` [3-{3-[4-(6-Fluoro-1,2-benzisoxazol-3-yl)piperidyl]propyl}-2-methylindole], 0.16 mg/kg.
In the case of `Cl.Fc1ccc(C(CCCN2CCC(c3noc4cc(Cl)ccc34)CC2)c2ccc(F)cc2)cc1` [6-Chloro-3{1-[4,4-bis(4-fluorophenyl)-1-butyl]-4-piperidyl}-1,2-benzisoxazole hydrochloride], the ED50 amounted to 6.4 mg/kg.
On the same count and under the same terms, with `Fc1ccc(C(CCCN2CCC(c3noc4cc(F)ccc34)CC2)c2ccc(F)cc2)cc1` [6-Fluoro-3-{1-[4,4-bis(4-fluorophenyl)-1-butyl]-4-piperidyl]-1,2-benzisoxable hydrobromide] the figure was 0.58 mg/kg.
Consider `CCN1CCCC1CNC(=O)c1cc(S(N)(=O)=O)ccc1OC` (centres unmarked) [sulpiride, reference compound], for which the ED50 worked out at 14.5 mg/kg.

Still in this test, the particulars now being: Mus musculus, ip, intraperitoneal 30 min before apomorphine 1.5 mg/kg s.c., climbing scored at 10, 20 and 30 min, linear regression, read-out: N[…] (ED50 mg/kg).
With `O=C(CCCN1CCC(O)(c2ccc(Cl)cc2)CC1)c1ccc(F)cc1` [haloperidol, reference compound], the ED50 was determined as 0.11 mg/kg.
